From publication PMC12396409, “Screening and hit evaluation of a microbial metabolite library against the pathogenic Plasmodium falciparum and Toxoplasma gondii parasites” (International Journal for Parasitology: Drugs and Drug …, 2025)
Read-outs that look alike come from different tables or passages of the source.

How the values were obtained:
[1] = system: T. gondii RH strain (RH-Tub-eYFP) tachyzoites; assay: microbe, parasite or virus in culture; type: cell-based, Toxoplasma gondii; settings: 72 h; for percent parasite growth at 2 µg/mL: Toxoplasma gondii
[2] = system: P. falciparum 3D7 parasites; assay: P. falciparum growth inhibition assay, 1-cycle (72 h treatment), SYBR DNA staining (library screen at 2 μg/mL and dose-response); type: cell-based, Plasmodium falciparum; settings: for activity at 2 µg/mL: Plasmodium falciparum
[3] = system: P. falciparum 3D7 parasites; assay: P. falciparum growth inhibition assay, 2-cycle (120 h treatment), delayed-death screen and dose-response; type: cell-based, Plasmodium falciparum; settings: for activity at 2 µg/mL: Plasmodium falciparum
[4] = T. gondii, 2 μg/mL, values are growth (% of control)
[5] = T. gondii, screen at 2 μg/mL, replicate 1, read-out: Tg_72h_%Growth_Rep1
[6] = T. gondii, screen at 2 μg/mL, replicate 2, read-out: Tg_72h_%Growth_Rep2
[7] = 3D7, P. falciparum, 72 h, screen at 2 μg/mL, replicate 1, read-out: Pf_72h_%Growth_Rep1
[8] = 3D7, P. falciparum, 72 h, screen at 2 μg/mL, replicate 2, read-out: Pf_72h_%Growth_Rep2
[9] = 3D7, P. falciparum, 120 h, screen at 2 μg/mL, replicate 1, read-out: Pf_120h_%Growth_Rep1
[10] = 3D7, P. falciparum, 120 h, screen at 2 μg/mL, replicate 2, read-out: Pf_120h_%Growth_Rep2

In the case of `COc1cc2c(oc(=O)c3cc(C)cc(OC)c32)c2c([C@@H]3O[C@H](C)[C@H](O)[C@@](C)(O)[C@H]3O)ccc(O)c12` [Chrysomycin B], the Mean ([1]; T. gondii, 2 μg/mL, mean of both replicates, growth (% of control)) is reported as 21.06, the “Replicate 1” value [1, 4] is reported as 25.01 and the “Replicate 2” value [1, 4] is reported as 17.10. It also gave a percent parasite growth at 2 µg/mL [1, 5] of 25%, a percent parasite growth at 2 µg/mL [1, 6] of 17.1% and an activity at 2 µg/mL ([2]; 3D7, 72 h, P. falciparum, 72 h, screen at 2 μg/mL, replicate 1, read-out: Pf_72h_%Growth_Rep1) of 67.5%. It also gave an activity at 2 µg/mL ([2]; 3D7, 72 h, P. falciparum, 72 h, screen at 2 μg/mL, replicate 2, read-out: Pf_72h_%Growth_Rep2) of 64.1%, an activity at 2 µg/mL ([3]; 3D7, 120 h, P. falciparum, 120 h, screen at 2 μg/mL, replicate 1, read-out: Pf_120h_%Growth_Rep1) of 73% and an activity at 2 µg/mL ([3]; 3D7, 120 h, P. falciparum, 120 h, screen at 2 μg/mL, replicate 2, read-out: Pf_120h_%Growth_Rep2) of 73.7%.
`CC1(C)CCCC2(C)c3cnncc3CCC12` (stereo not drawn) [Polygodial pyridazine] gave a Tg_72h_%Growth_Rep1 ([1]; T. gondii, parasite screen 2 μg/mL, % growth, replicate 1) of 119.26%, a Tg_72h_%Growth_Rep2 ([1]; T. gondii, parasite screen 2 μg/mL, % growth, replicate 2) of 96.17% and a Pf_72h_%Growth_Rep1 ([2]; P. falciparum, 72 h, parasite screen 2 μg/mL, % growth, replicate 1) of 71.42%. It also gave a Pf_72h_%Growth_Rep2 ([2]; P. falciparum, 72 h, parasite screen 2 μg/mL, % growth, replicate 2) of 85.26%, a Pf_120h_%Growth_Rep1 ([3]; P. falciparum, 120 h, parasite screen 2 μg/mL, % growth, replicate 1) of 58.21% and a Pf_120h_%Growth_Rep2 ([3]; P. falciparum, 120 h, parasite screen 2 μg/mL, % growth, replicate 2) of 140.85%.
Work on `C=CC(C)(C)[C@@]12C[C@H]3C(=O)N/C(=C/c4c[nH]cn4)C(=O)N3[C@@H]1Nc1ccccc12` [Roquefortine C] yielded a percent parasite growth at 2 µg/mL ([1]; T. gondii, parasite screen 2 μg/mL, % growth, replicate 1, read-out: Tg_72h_%Growth_Rep1) of 112%, a percent parasite growth at 2 µg/mL ([1]; T. gondii, parasite screen 2 μg/mL, % growth, replicate 2, read-out: Tg_72h_%Growth_Rep2) of 89.5% and an activity at 2 µg/mL ([2]; 3D7, P. falciparum, 72 h, parasite screen 2 μg/mL, % growth, replicate 1, read-out: Pf_72h_%Growth_Rep1) of 76.2%. The activity at 2 µg/mL ([2]; 3D7, P. falciparum, 72 h, parasite screen 2 μg/mL, % growth, replicate 2, read-out: Pf_72h_%Growth_Rep2) was 78.8%, the activity at 2 µg/mL ([3]; 3D7, P. falciparum, 120 h, parasite screen 2 μg/mL, % growth, replicate 1, read-out: Pf_120h_%Growth_Rep1) was 73.1% and the activity at 2 µg/mL ([3]; 3D7, P. falciparum, 120 h, parasite screen 2 μg/mL, % growth, replicate 2, read-out: Pf_120h_%Growth_Rep2) was 98.8%.
For `CN(C)[C@@H]1C(O)=C(C(N)=O)C(=O)[C@@]2(O)C(O)=C3C(=O)c4c(O)cccc4[C@@](C)(O)[C@H]3C[C@@H]12` [Tetracycline], the percent parasite growth at 2 µg/mL ([1]; read-out: Tg_72h_%Growth_Rep1) was 103%, the percent parasite growth at 2 µg/mL ([1]; read-out: Tg_72h_%Growth_Rep2) was 101% and the activity at 2 µg/mL [2, 7] was 62.1%. For the same compound, the activity at 2 µg/mL [2, 8] was 83.3%, the activity at 2 µg/mL [3, 9] was 164% and the activity at 2 µg/mL [3, 10] was 73.9%.
In the case of `CC(=O)c1c(O)c(C)c(O)c2c1OC1=CC(=O)C(C(C)=O)C(=O)C12C` (stereo not drawn) [Usnic acid], the percent parasite growth at 2 µg/mL [1, 5] is reported as 115%, the percent parasite growth at 2 µg/mL [1, 6] is reported as 87.6% and the activity at 2 µg/mL [2, 7] is reported as 82.8%. The activity at 2 µg/mL [2, 8] was 126%, the activity at 2 µg/mL [3, 9] was 101% and the activity at 2 µg/mL [3, 10] was 102%.
In the case of `CCOC(=O)[C@H](Cc1ccccc1)NC(=O)c1cc(Cl)c2c(c1O)C(=O)O[C@H](C)C2` [BIA-O1589], the Tg_72h_%Growth_Rep1 ([1]; T. gondii, parasite screen at 2 μg/mL, % growth, replicate 1) is reported as 74.06%, the Tg_72h_%Growth_Rep2 ([1]; T. gondii, parasite screen at 2 μg/mL, % growth, replicate 2) is reported as 66.00% and the Pf_72h_%Growth_Rep1 ([2]; P. falciparum 3D7, 72 h, parasite screen at 2 μg/mL, % growth, replicate 1) is reported as 85.35%. It also gave a Pf_72h_%Growth_Rep2 ([2]; P. falciparum 3D7, 72 h, parasite screen at 2 μg/mL, % growth, replicate 2) of 104.78%, a Pf_120h_%Growth_Rep1 ([3]; P. falciparum 3D7, 120 h, parasite screen at 2 μg/mL, % growth, replicate 1) of 89.48% and a Pf_120h_%Growth_Rep2 ([3]; P. falciparum 3D7, 120 h, parasite screen at 2 μg/mL, % growth, replicate 2) of 144.99%.
In the case of `CCC(C(=O)C(C)C(O)C(C)CCc1ccc(C)c(O)c1C(=O)O)C1OC(CC)(C2CCC(O)(CC)C(C)O2)CC1C` (stereo not drawn) [BIA-L1533], the Tg_72h_%Growth_Rep1 ([1]; T. gondii RH, library screen at 2 μg/mL, % growth, replicate 1) is reported as -0.84%, the Tg_72h_%Growth_Rep2 ([1]; T. gondii RH, library screen at 2 μg/mL, % growth, replicate 2) is reported as -0.33% and the Pf_72h_%Growth_Rep1 ([2]; P. falciparum 3D7, 72 h, library screen at 2 μg/mL, % growth, replicate 1) is reported as 6.55%. The Pf_72h_%Growth_Rep2 ([2]; P. falciparum 3D7, 72 h, library screen at 2 μg/mL, % growth, replicate 2) was 4.89%, the Pf_120h_%Growth_Rep1 ([3]; P. falciparum 3D7, 120 h, library screen at 2 μg/mL, % growth, replicate 1) was 6.55% and the Pf_120h_%Growth_Rep2 ([3]; P. falciparum 3D7, 120 h, library screen at 2 μg/mL, % growth, replicate 2) was 19.46%.
For `O=C1N[C@@H](Cc2c[nH]c3ccccc23)C(=O)N2CCC[C@@H]12` [Brevianamide F], the percent parasite growth at 2 µg/mL [1, 5] was 83.3%, the percent parasite growth at 2 µg/mL [1, 6] was 92% and the activity at 2 µg/mL [2, 7] was 103%. The activity at 2 µg/mL [2, 8] was 84.4%, the activity at 2 µg/mL [3, 9] was 148% and the activity at 2 µg/mL [3, 10] was 91%.
